{"source": "patent US10765094B2", "about": "“Inflammation reporter system” (priority 2014, dated 2020)", "key": {"[1]": {"tested_on": "mouse-derived macrophage-like cell line RAW264", "experiment": "Reporter activity in RAW264 cells transiently transfected with the reporter gene vector, luciferase luminescence measured with a luminometer", "type": "cell-based", "conditions": "LPS 2 μg/mL", "experimental": "The gene vector constructed as above was transiently introduced into mouse-derived macrophage-like cell line RAW264.\nFor transfection, Effectene (Qiagen) was used, and the cells at 24 hours after transfection were collected and provided for experiments. To a culture of transiently expressing cells, LPS (Sigma #L2654) was added at a concentration of 2 μg/mL, and the amount of luciferase luminescence at 48 hours after addition was determined by being measured with a luminometer. For use as a control, an LPS-free group was provided. In addition, as a conventional reporter system detecting only IL-1β gene expression, a vector was prepared to have GL4 ligated downstream of a promoter for the IL-1β gene, and cells transfected with this vector were provided for the same test."}, "[2]": {"tested_on": "inflammation reporter mouse", "experiment": "Visualization of inflammatory reactions in the inflammation reporter transgenic mouse, bioimaging analyzer (IVIS)", "type": "in vivo", "conditions": "LPS 3 mg/kg wt intraperitoneally; 0, 4 and 24 hours after administration", "experimental": "The excised and purified gene vector was injected into 200 fertilized eggs at the pronucleus stage which had been taken from mice of the C57BL/6 strain, thereby obtaining 71 pups. The genomic DNA extracted from the body tissue of each pup was used for genotype analysis to thereby obtain 18 founder mice having the gene vector inserted into their genome. Four founder mice were each crossed with a wild-type mouse of the C57BL/6 strain to produce F1 generation mice, which were then examined for reporter molecule reaction when intraperitoneally administered with LPS (Sigma #L2654).\nThe inflammation reporter mouse thus established was intraperitoneally administered with LPS (Sigma #L2654) at a concentration of 3 mg/kg wt."}}, "data": [{"substance": "vector of the present invention: gene vector: IL-1β promoter/TK promoter, GL4 luciferase, IL-1β partial sequence (17-216 aa), CL1-PEST, SV40 polyA", "values": [{"measurement": "improvement in sensitivity compared to the vector of conventional type", "setting": "[1]; 48 hours, conventional vector = GL4 downstream of IL-1β gene promoter", "result": "≥ 2", "unit": "fold"}]}, {"substance": "lipopolysaccharide [LPS]", "values": [{"measurement": "reporter signals (amount of luciferase luminescence) upon LPS stimulation", "setting": "[1]; 48 hours after addition, vs LPS-free group, cells transfected with vector of the present invention or of conventional type", "result": "significant increase in reporter signals"}, {"measurement": "luciferase luminescence signals in the body", "setting": "[2]", "result": "luminescence signals from luciferase were able to be captured from all tissues of the body"}]}]}
